Experimental data from ChEMBL document CHEMBL1140461, “Design and synthesis of thiazole-5-hydroxamic acids as novel histone deacetylase inhibitors” (Bioorg Med Chem Lett, 2007).

Tests used:
Histone deacetylase = experiment: Inhibition of HDAC activity in HeLa cell nuclear extract by fluorescent assay; format: protein assay, Homo sapiens
MCF7 = experiment: Antiproliferative activity against human MCF7 cells; format: functional

| SMILES | IC50 (Histone deacetylase) | GI50 (MCF7) |
| --- | --- | --- |
| O=C(NO)c1cnc(N2CCN(S(=O)(=O)c3ccc(C(F)(F)F)cc3)CC2)s1 | 2.6 µM | 4 µM |
| O=C(NO)c1cnc(N2CCN(Cc3ccccc3)CC2)s1 | > 100 µM | 4 µM |
| O=C(/C=C/c1cnc(N2CCN(S(=O)(=O)c3ccc([N+](=O)[O-])cc3)CC2)s1)NO | 1.6 µM | 5 µM |
| O=C(/C=C/c1cnc(N2CCN(S(=O)(=O)c3ccc(-c4ccccc4)cc3)CC2)s1)NO | 11 µM | 15 µM |
| O=C(NO)c1cnc(N2CCN(C(=O)c3ccccc3)CC2)s1 | 3.5 µM | 40 µM |
| O=C(/C=C/c1cnc(N2CCN(S(=O)(=O)c3ccc(OC(F)(F)F)cc3)CC2)s1)NO | 3.2 µM | 6 µM |
| CC(=O)N1CCN(c2ncc(C(=O)NO)s2)CC1 | 2.8 µM | > 100 µM |
| O=C(NO)c1cnc(N2CCN(CCc3ccccc3)CC2)s1 | > 100 µM | > 100 µM |
| O=C(NO)c1cnc(N2CCN(C(=O)Cc3ccccc3)CC2)s1 | 32 µM | 20 µM |
| O=C(NO)c1cnc(N2CCN(S(=O)(=O)c3ccc([N+](=O)[O-])cc3)CC2)s1 | 0.4 µM | 10 µM |
| O=C(NO)c1cnc(N2CCN(S(=O)(=O)c3ccc(OC(F)(F)F)cc3)CC2)s1 | 1.2 µM | 4 µM |
| O=C(NO)c1cnc(N2CCN(S(=O)(=O)c3ccccc3)CC2)s1 | 0.57 µM | 10 µM |
| COc1ccc(S(=O)(=O)N2CCN(c3ncc(/C=C/C(=O)NO)s3)CC2)cc1OC | 0.16 µM | 4 µM |
| CN1CCN(c2ncc(C(=O)NO)s2)CC1 | > 100 µM | > 100 µM |

Now those with a lower GI50 (MCF7), led by results:

| IC50 (Histone deacetylase) | GI50 (MCF7) | SMILES |
| --- | --- | --- |
| 15 µM | 3 µM | O=C(/C=C/c1cnc(N2CCN(S(=O)(=O)c3ccc(C(F)(F)F)cc3)CC2)s1)NO |
| 0.44 µM | 3 µM | O=C(/C=C/c1cnc(N2CCN(S(=O)(=O)c3ccccc3)CC2)s1)NO |
| 0.2 µM | 1.8 µM | O=C(NO)c1cnc(N2CCN(S(=O)(=O)c3ccc(-c4ccccc4)cc3)CC2)s1 |
| 0.22 µM | 2 µM | O=C(NO)c1cnc(N2CCN(S(=O)(=O)c3ccc4ccccc4c3)CC2)s1 |
| 0.05 µM | 0.7 µM | O=C(/C=C/c1cnc(N2CCN(S(=O)(=O)c3ccc4ccccc4c3)CC2)s1)NO |
| 4.7 µM | 2.5 µM | O=C(/C=C/c1cnc(N2CCN(S(=O)(=O)c3ccc(F)cc3)CC2)s1)NO |
| 0.07 µM | 2 µM | COc1ccc(S(=O)(=O)N2CCN(c3ncc(C(=O)NO)s3)CC2)cc1OC |
| 0.09 µM | 0.35 µM | Cc1ccc(S(=O)(=O)N2CCN(c3ncc(C(=O)NO)s3)CC2)cc1 |
| 0.15 µM | 3.5 µM | O=C(NO)c1cnc(N2CCN(S(=O)(=O)c3ccc(F)cc3)CC2)s1 |
| 0.55 µM | 2 µM | Cc1ccc(S(=O)(=O)N2CCN(c3ncc(/C=C/C(=O)NO)s3)CC2)cc1 |
